The subject of this test is LNCap cells. Kind of test: Ternary complex formation of ARM, antibody and target cells (flow cytometry). Type of test: cell-based, human. The settings on record: 20 ug/ml rabbit anti-DNP Alexa 488, 4 C 30 min, mean fluorescence. Here is the method:
Various technologies are suitable for assessing complex formation. One example such assay was described below. Those skilled in the art appreciate that one or more parameters and/or conditions may be adjusted and other assays/reagents/conditions, etc., can also be utilized.
Adherent cells (LNCap, CRL-1740, for example results below) were harvested using Accumax (Sigma-Aldrich A7089-100 ml). Compounds were diluted in DMSO (MP 191418) to 1000× the starting concentration used in the assay into a 96 well polypropylene plate (Corning 3357). They were then serially diluted in ½ log increments to generate 8-12 concentrations in DMSO (assay dependent). These DMSO stocks were then step diluted 1/10 into PBS (VWR Cat. #20012043). The step diluted compound range was then added into the polypropylene assay plate 1/100 the volume of the assay volume. The cells used for the assay were counted and centrifuged and resuspended at a concentration of 100,000 cells per 200 ul in Flow buffer: 1% BSA (American Bio AB01088-00100); 0.5 mM EDTA (VWR 45001-122); PBS (VWR Cat. #20012043) with 20 ug/ml rabbit anti-DNP Alexa 488 (Thermo Fisher Scientific A11097). The cells were then added into the polypropylene plate with the step diluted compounds and incubated at 4 C 30 min. At the end of the incubation, the cells were centrifuged and washed 2× with Flow buffer containing 0.5% Tween 20 (BP337-500). Samples were analyzed on a BD FacsCelesta. Mean fluorescence was analyzed using Graphpad Prism and curves were fit using log (inhibitor) vs. response-Variable slope (four parameters).
Broadly, the EC50 is the concentration needed to bring the measured effect to its halfway point. Lower therefore signals higher potency in that assay. For the molecule `CC(C)C[C@@H]1NC(=O)[C@H](Cc2c[nH]cn2)NC(=O)[C@H](Cc2c[nH]c3ccccc23)NC(=O)[C@H](C)NC(=O)[C@@H](NC(=O)[C@@H](N)CC(=O)O)CSSC[C@@H](C(=O)N[C@H](C(=O)NCCOCCOCCOCCOCCOCCOCCOCCOCc2cn(CCCC[C@H](NC(=O)N[C@@H](CCC(=O)O)C(=O)O)C(=O)O)nn2)[C@@H](C)O)NC(=O)[C@H](Cc2c[nH]c3ccccc23)NC(=O)[C@H](C(C)C)NC(=O)[C@H](CC(C)C)NC(=O)[C@H](CCC(=O)O)NC(=O)CNC1=O` [Compound I-16], the EC50 came to 7.4 nM.
`CC(C)C[C@@H]1NC(=O)[C@H](Cc2c[nH]cn2)NC(=O)[C@H](Cc2c[nH]c3ccccc23)NC(=O)[C@H](C)NC(=O)[C@@H](NC(=O)[C@H](CC(=O)O)NC(=O)CCOCCOCCOCCOCCOCCOCc2cn(CCCC[C@H](NC(=O)N[C@@H](CCC(=O)O)C(=O)O)C(=O)O)nn2)CSSC[C@@H](C(=O)N[C@H](C(=O)O)[C@@H](C)O)NC(=O)[C@H](Cc2c[nH]c3ccccc23)NC(=O)[C@H](C(C)C)NC(=O)[C@H](CC(C)C)NC(=O)[C@H](CCC(=O)O)NC(=O)CNC1=O` [Compound I-33] yielded an EC50 of 3 nM.
`CC(C)C[C@@H]1NC(=O)[C@H](Cc2c[nH]cn2)NC(=O)[C@H](Cc2c[nH]c3ccccc23)NC(=O)[C@H](C)NC(=O)[C@@H](NC(=O)[C@H](CC(=O)O)NC(=O)CCOCCOCCOCCOCCOCCOCCOCCOCc2cn(CCCC[C@H](NC(=O)N[C@@H](CCC(=O)O)C(=O)O)C(=O)O)nn2)CSSC[C@@H](C(=O)N[C@H](C(=O)O)[C@@H](C)O)NC(=O)[C@H](Cc2c[nH]c3ccccc23)NC(=O)[C@H](C(C)C)NC(=O)[C@H](CC(C)C)NC(=O)[C@H](CCC(=O)O)NC(=O)CNC1=O` [Compound I-34] displayed a concentration for a half-maximal effect (EC50) of 8.7 nM.

Values taken from US12491246B2, “Combination therapy of arms and natural killer cells” (KLEO PHARMACEUTICALS, INC., priority 2018, dated 2025).
